US8916499B2, “Herbicidal compositions comprising 4-amino-3-chloro-5-fluoro-6-(4-chloro-2-fluoro-3-methoxyphenyl) pyridine-2-carboxylic acid or a derivative thereof and a protoporphyrinogen oxidase inhibitor” (Dow AgroSciences LLC, priority 2012, dated 2014)

Legend:
[1] = tested on: IPOHE; test: Pre-emergence soil-applied weed control, greenhouse (Example IV); assay type: in vivo, Ipomoea hederacea (L.) Jacq.
Description: (§1) Seeds or nutlets of the desired test plant species were planted in a soil matrix prepared by mixing a loam soil (32 percent silt, 23 percent clay, and 45 percent sand, with a pH of about 6.5 and an organic matter content of about 1.9 percent) and calcareous grit in an 80 to 20 ratio. The soil matrix was contained in plastic pots with a volume of 1 quart and a surface area of 83.6 square centimeters (cm^2).
(§2) Treatments consisted of the benzyl ester of 4-amino-3-chloro-5-fluoro-6-(4-chloro-2-fluoro-3-methoxy-phenyl)pyridine-2-carboxylic acid (compound A) formulated as an SC (suspension concentrate) and various herbicidal components alone and in combination. Forms of compound A were applied on an acid equivalent basis.
(§3) Other herbicidal components were applied on an acid equivalent or active ingredient basis and included the protoporphyrinogen oxidase (PPO)-inhibiting herbicides, flumioxazin formulated as Payload® and oxadiazon formulated as Ronstar® 50W.
(§4) Treatment requirements were calculated based upon the rates being tested, the concentration of active ingredient or acid equivalent in the formulation, and a 12 mL application volume at a rate of 187 L/ha.
(§5) For treatments comprised of formulated compounds, measured amounts of compounds were placed individually in 25 mL glass vials and diluted in a volume of 1.25% (v/v) Agri-Dex® crop oil concentrate (COC) to obtain 12× stock solutions. […] Application solutions were prepared by adding an appropriate amount of each stock solution (e.g., 1 mL) and diluted to the appropriate final concentrations with the addition of 10 mL of an aqueous mixture of 1.25% (v/v) COC so that the final spray solutions contained 1.25% (v/v) COC.
(§6) All stock solutions and applications solutions were visually inspected for compound compatibility prior to application. Spray solutions were applied to the soil with an overhead Mandel track sprayer equipped with a 8002E nozzles calibrated to deliver 187 L/ha over an application area of 0.503 m^2 at a spray height of 18 inches (46 cm) above average pot height. Control pots were sprayed in the same manner with the solvent blank.
(§7) The treated and control pots were placed in a greenhouse and top watered as needed. When required to ensure good germination and healthy plants, a fungicide treatment and/or other chemical or physical treatment was applied. The pots were maintained in a greenhouse with an approximate 14 hr photoperiod which was maintained at about 29° C. during the day and 26° C. during the night. Nutrients (Peters® Excel 15-5-15 5-Ca 2-Mg) were applied in the irrigation solution as needed and water was added on a regular basis. Supplemental lighting was provided with overhead metal halide 1000-Watt lamps as necessary. After approximately 4 weeks, the condition of the test plants as compared with that of the untreated plants was determined visually and scored on a scale of 0 to 100 percent where 0 corresponds to no injury or growth inhibition and 100 corresponds to complete kill.
Colby's equation was used to determine the herbicidal effects expected from the mixtures (Colby, S. R. 1967. Calculation of the synergistic and antagonistic response of herbicide combinations. Weeds 15:20-22.).
The following equation was used to calculate the expected activity of mixtures containing two active ingredients, A and B: Expected=A+B−(A×B/100)

[2] = tested on: IPOHE; test: Postemergence foliar-applied weed control, direct seeded rice, greenhouse (Example I); assay type: in vivo, Ipomoea hederacea Jacq.; conditions: g ae/ha Compound A Benzyl Ester+g ai/ha oxadiazon: r33 17.5+0, r34 0+250, r35 17.5+250
[3] = tested on: ECHOR; test: In-water applied weed control, transplanted paddy rice, greenhouse (Example II); assay type: in vivo, Echinochloa oryzoides (Ard.) Fritsch
[4] = tested on: LEFCH; test: as above; assay type: in vivo, Leptochloa chinensis (L.) Nees
[5] = tested on: SCPMA; test: as above; assay type: in vivo
[6] = tested on: XANST; test: Pre-emergence soil-applied weed control, greenhouse (Example IV); assay type: in vivo, Xanthium strumarium L.
Description: as §1, §2, §3, §4, §5, §6
as §7, with “Nutrients (Peters® Excel 15-5-15 5-Ca 2-Mg) were applied in the irrigation solution as needed and water was added on a regular basis. Supplemental lighting was provided with overhead metal halide 1000-Watt lamps as necessary.” left out, “kill. […]” for “kill.”

[7] = tested on: ECHCG; test: Postemergence foliar-applied weed control, direct seeded rice, greenhouse (Example I); assay type: in vivo, Echinochloa crusgalli (L.) Beauv.

COc1c(Cl)ccc(-c2nc(C(=O)OCc3ccccc3)c(Cl)c(N)c2F)c1F [Compound A Benzyl Ester, benzyl ester of 4-amino-3-chloro-5-fluoro-6-(4-chloro-2-fluoro-3-methoxy-phenyl)pyridine-2-carboxylic acid]
Visual Weed Control (%) - 32 DAA IPOHE Obs ([1]; 8 g ae/ha alone): 65%
Visual Weed Control (%) - 28 DAA IPOHE Obs ([1]; 16 g ae/ha alone): 13%
Visual Weed Control (%) - 32 DAA IPOHE Obs ([1]; 16 g ae/ha alone): 83%
Visual Weed Control (%) - 28 DAA IPOHE Obs ([1]; 32 g ae/ha alone): 23%
Visual Weed Control (%) - 21 DAA IPOHE Obs [2]: 10%
Visual Weed Control (%) - 20 DAA ECHOR Obs ([3]; 4.38 g ae/ha alone): 10%
Visual Weed Control (%) - 21 DAA ECHOR Obs ([3]; 8 g ae/ha alone): 20%
Visual Weed Control (%) - 20 DAA ECHOR Obs ([3]; 8.75 g ae/ha alone): 15%
Visual Weed Control (%) - 21 DAA ECHOR Obs ([3]; 8.75 g ae/ha alone): 25%
Visual Weed Control (%) - 21 DAA ECHOR Obs ([3]; 16 g ae/ha alone): 45%
Visual Weed Control (%) - 21 DAA ECHOR Obs ([3]; 17.5 g ae/ha alone): 60%
Visual Weed Control (%) - 21 DAA ECHOR Obs ([3]; 32 g ae/ha alone): 60%
Visual Weed Control (%) - 20 DAA LEFCH Obs ([4]; 4.38 g ae/ha alone): 0%
Visual Weed Control (%) - 20 DAA LEFCH Obs ([4]; 8.75 g ae/ha alone): 20%
Visual Weed Control (%) - 20 DAA LEFCH Obs ([4]; 17.5 g ae/ha alone): 30%
Visual Weed Control (%) - 21 DAA SCPMA Obs ([5]; 48 g ae/ha alone): 0%
Visual Weed Control (%) - 21 DAA SCPMA Obs ([5]; 96 g ae/ha alone): 0%
Visual Weed Control (%) - 29 DAA XANST Obs ([6]; 16 g ae/ha alone): 0%
Visual Weed Control (%) - 29 DAA XANST Obs ([6]; 32 g ae/ha alone): 5%
Visual Weed Control (%) - 21 DAA ECHCG Obs ([7]; g ae/ha Compound A Benzyl Ester+g ai/ha carfentrazone-ethyl: r11 8.75+0, r12 0+3.5, r13 0+7, r14 0+14, r15 8.75+3.5, r16 8.75+7, r17 8.75+14): 55%
Visual Weed Control (%) - 23 DAA ECHCG Obs ([7]; g ae/ha Compound A Benzyl Ester+g ai/ha oxyfluorfen (SC): r25 4.38+0, r26 0+90, r27 0+180, r28 0+360, r29 4.38+90, r30 4.38+180, r31 4.38+360): 40%
Visual Weed Control (%) - 21 DAA ECHCG Obs ([7]; g ae/ha Compound A Benzyl Ester+g ai/ha pyraflufen-ethyl: r11 8+0, r12 0+5.3, r13 0+10.6, r14 8+5.3, r15 8+10.6): 45%
